Activity calls are given as the source filed them. No cut-off for these calls is given here.
Columns and labels:
c-Myc/Max [1] = target: T1, c-Myc/Max (Homo sapiens, UniProt P01106+P61244); experiment: Inhibition of Myc-Max (unknown origin) expressed in human LNCAP cells assessed as reduction in transcriptional activity at 25 uM after 1 day by luciferase reporter gene assay relative to control; assay type: cell-based
c-Myc/Max [2] = target: T1, c-Myc/Max; experiment: Inhibition of Myc-Max (unknown origin) expressed in human LNCAP cells assessed as reduction in transcriptional activity after 1 day by luciferase reporter gene assay; assay type: cell-based
LNCaP [3] = experiment: Cytotoxicity against human LNCAP cells assessed as reduction in cell viability after 96 hrs by prestoblue assay; assay type: functional, cell-based
LNCaP [4] = experiment: Induction of apoptosis in human LNCAP cells assessed as increase in PARP cleavage at 6.25 to 25 uM after 48 hrs by Western blot analysis; assay type: functional, cell-based
c-Myc/Max [5] = target: T1, c-Myc/Max; experiment: Inhibition of Myc-Max (unknown origin) expressed in human 22rv1 cells harboring UBE2C promoter assessed as reduction in ARV7 level at 25 uM after 1 day by luciferase reporter gene assay relative to control; assay type: cell-based
c-Myc/Max [6] = target: T1, c-Myc/Max; experiment: Inhibition of Myc-Max (unknown origin) expressed in human 22rv1 cells harboring UBE2C promoter assessed as reduction in ARV7 level after 1 day by luciferase reporter gene assay; assay type: cell-based
c-Myc/Max [7] = target: T1, c-Myc/Max; experiment: Inhibition of Myc-Max (unknown origin) expressed in human 22rv1 cells harboring UBE2C promoter assessed as reduction in ARV7 level at 12.5 to 25 uM after 48 hrs by Western blot analysis; assay type: cell-based
c-Myc/Max [8] = target: T1, c-Myc/Max; experiment: Inhibition of biotin-labeled EBOX oligonucleotide binding to GST-tagged Myc (368 to 454 residues)/His-tagged Max (23 to 102 residues) (unknown origin) expressed in Escherichia coli BL21(DE3) at 500 uM incubated up to 600 secs by biolayer interferometry assay
c-Myc/Max [9] = target: T1, c-Myc/Max; experiment: Inhibition of full length Myc-Max (unknown origin) expressed in human PC3 cells at 12.5 to 25 uM after 24 hrs by luciferase reporter gene based mammalian two-hybrid assay; assay type: cell-based
LNCaP [10] = experiment: Cytotoxicity against human LNCAP cells assessed as reduction in cell viability at 3 uM after 96 hrs by prestoblue assay relative to control; assay type: functional
[11] = Cytotoxicity against rat HO15.19 cells assessed as reduction in cell viability at 25 uM after 96 hrs by prestoblue assay relative to control; assay type: cell-based; conditions: read-out: INH
HO15.19 = experiment: Cytotoxicity against rat HO15.19 cells assessed as reduction in cell viability at 3 uM after 96 hrs by prestoblue assay; assay type: cell-based; conditions: ho15.19, 96 h
c-Myc/Max [12] = target: T1, c-Myc/Max; experiment: Inhibition of biotin-labeled EBOX oligonucleotide binding to GST-tagged Myc (368 to 454 residues)/His-tagged Max (23 to 102 residues) (unknown origin) expressed in Escherichia coli BL21(DE3) incubated up to 600 secs by biolayer interferometry assay

T1 sequence (P01106 whole entry): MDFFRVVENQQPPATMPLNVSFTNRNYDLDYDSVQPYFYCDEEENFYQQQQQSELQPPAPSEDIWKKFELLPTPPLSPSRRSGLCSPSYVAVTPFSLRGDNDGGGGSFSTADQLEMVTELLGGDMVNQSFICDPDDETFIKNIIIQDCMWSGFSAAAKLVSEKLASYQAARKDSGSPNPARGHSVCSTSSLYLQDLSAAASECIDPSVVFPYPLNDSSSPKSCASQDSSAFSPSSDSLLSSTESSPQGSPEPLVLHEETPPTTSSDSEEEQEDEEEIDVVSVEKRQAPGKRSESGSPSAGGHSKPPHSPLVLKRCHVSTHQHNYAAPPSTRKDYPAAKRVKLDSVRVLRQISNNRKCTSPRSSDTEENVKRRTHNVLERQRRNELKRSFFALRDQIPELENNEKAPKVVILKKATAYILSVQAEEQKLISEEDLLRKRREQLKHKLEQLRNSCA
T1 sequence (P61244 whole entry): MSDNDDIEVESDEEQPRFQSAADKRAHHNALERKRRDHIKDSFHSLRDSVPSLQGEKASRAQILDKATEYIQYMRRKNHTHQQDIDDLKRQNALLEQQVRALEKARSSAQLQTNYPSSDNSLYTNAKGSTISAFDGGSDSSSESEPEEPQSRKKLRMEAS

inhibition (c-Myc/Max [1]) [%]	inhibition (c-Myc/Max [5]) [%]	inhibition (c-Myc/Max [6])	SMILES	IC50 (LNCaP [3]) [µM]	also measured
98	71	Dose-dependent effect	O=C1NC(=S)S/C1=C\c1ccccc1C(F)(F)F	11.1	IC50 (c-Myc/Max [2]): 22.7 µM; Activity (LNCaP [4]): Active; inhibition (c-Myc/Max [7]): Active; inhibition (c-Myc/Max [8]): Active
65		Dose-dependent effect	O=C(CN1C(=O)NC2(CCCC2)C1=O)Nc1cccc(C(F)(F)F)c1		
91	70	Dose-dependent effect	CCc1ccc(/C=C2\SC(=S)NC2=O)cc1	18.3	
53		Dose-dependent effect	CS(=O)(=O)Nc1ccccc1C(=O)OCc1cc(=O)oc2cc(O)ccc12		
65		Dose-dependent effect	O=C1/C(=C/c2cccs2)SC(=S)N1c1cccc(O)c1		
78	64	Dose-dependent effect	CN1C(=O)/C(=C\C=C\c2ccco2)SC1=S		
95	73	Dose-dependent effect	NC(=O)c1ccsc1NC(=O)Nc1cccc(C(F)(F)F)c1		
73	58	Dose-dependent effect	CC(C)(C)[C@H]1CCc2sc(C(=O)N3CCC(C(N)=O)CC3)cc2C1		
88		Dose-dependent effect	O=[N+]([O-])c1ccc(Nc2ccccc2-c2ccccc2)c2nonc12	8.7	inhibition (c-Myc/Max [9]): inactive; inhibition (c-Myc/Max [7]): Active; inhibition (c-Myc/Max [8]): Active
81	51	Dose-dependent effect	CC(=O)Nc1ccc(Nc2cc(Cl)c(C(F)(F)F)cc2[N+](=O)[O-])cc1		
106	94	Dose-dependent effect	FC(F)(F)c1cc(NC(=S)NCc2ccccc2)cc(C(F)(F)F)c1	2.5	IC50 (c-Myc/Max [2]): 8.9 µM; inhibition at 3 µM (LNCaP [10]): 70%; cytotoxicity at 96 h, 25 µM [11]: ≤ 40%; Activity (HO15.19): Non-Toxic; Activity (LNCaP [4]): Active; inhibition (c-Myc/Max [12]): Dose-dependent effect; inhibition (c-Myc/Max [9]): Active; inhibition (c-Myc/Max [7]): Active; inhibition (c-Myc/Max [8]): Active

SMILES	inhibition (c-Myc/Max [1]) [%]	inhibition (c-Myc/Max [5]) [%]	inhibition (c-Myc/Max [6])	IC50 (LNCaP [3]) [µM]	also measured
S=C(NCc1ccc(Cl)c(Cl)c1)Nc1cccnc1	73	50	Dose-dependent effect		
